Series [1] is described as follows: Liver microsome test (metabolic stability). The format is in vitro ADME, human. Here is the method:
In an incubation system with a total volume of 250 μL, an incubation solution of hum an liver microsomes containing 0.5 mg/mL protein was formulated with a 50 mmol/L PBS buffer (pH=7.4). Before the start of incubation, 2.5 μL of a 100 μmol/L compound to be tested was mixed with 197.5 μL of the above incubation buffer, pre-incubated for 5 min in a 37° C. water bath, and then added with 50 μL of a reducing coenzyme II solution (5 mmol/L) that was likewise pre-incubated for 5 min to start a reaction (in the reaction system, the protein content of liver microsomes from various species was 0.5 g/L, and the final concentration of the compound to be tested was 1 μmol/L), incubated in a 37° C. water bath with shaking, and taken out at 0, 5, 15, 30, and 60 min respectively. 600 μL of a methanol solution of mixed positive and negative internal standards with internal standards Terfenadine (positive ion internal standard, 25 ng/mL) and Tolbutamide (negative ion internal standard, 50 ng/mL) was immediately added to terminate the reaction. The incubation solution after termination was shaken for 2 min and centrifuged (4° C., 16000 r/min) for 10 min, and the supernatant was taken for LC-MS/MS detection to quantitatively analyze the remaining amount of the parent drug. (DMSO=0.1%).
The concentration of the compound at 0 mi incubation was regarded as 100%, and the concentrations at other incubation time points were converted into the remaining percentages. The natural logarithm of the remaining percentage at each time point was linearly regressed against the incubation time, and the slope k was calculated. According to the formula T1/2=−0.693/k, the in vitro half-life was calculated. Clearance in liver microsomes (CLint (μL/min/mg protein)=Ln (2)*1000/T1/2 (min/Protein Conc (mg/ml)).

The target in the next series is JAK2 (Homo sapiens, UniProt O60674). Kind of series: Kinase activity test (γ33P-ATP isotopic method), JAK2. The format is biochemical. To be noted: 33P-ATP 10 μM, 2 h reaction. Here is the method:
This experiment adopted a γ^33p-ATP isotopic test method to test the inhibitory effect of a compound on kinases JAK1, JAK2, JAK3 and TYK2, and obtained a half inhibitory concentration IC50 of the compound for inhibiting activity of the kinase.
20 mM 4-hydroxyethylpiperazine ethanesulfonic acid buffer (Hepes, pH 7.5), 10 mM magnesium chloride (MgCl2), 1 mM ethylene glycol diethyl ether diamine tetraacetic acid (EGTA), 0.02% dodecyl polyethylene glycol ether (Brij35), 0.02 mg/ml bovine serum albumin (BSA), 0.1 mM sodium vanadate (Na3VO4), 2 mM dithiothreitol (DTT), and 1% dimethylsulfoxide (DMSO).
A compound is dissolved with 100% DMSO to a specific concentration, and then subjected to gradient dilution by an automatic sampling device to obtain the samples to be tested with different concentrations (DMSO solutions).
3.1 diluting the reaction substrate with the basic reaction buffer;
3.2 adding the kinase into the substrate solution, and gently mixing well;
3.3 adding, by the automatic sampling system, the 100% DMSO diluted compounds with different concentrations into the kinase solution, and incubating for 20 min at room temperature; and
3.4 adding ^33p-ATP (10 μM, 10 μCi/μl) at room temperature to initiate the kinase reaction for a duration of 2 h.
The unreacted ATP and the reaction-generated […] in the reaction were removed by an ion exchange filtering system, and then the amount of radioactivity of ^33p isotope in the substrate was detected.
According to the amount of radioactivity, the kinase activities in the systems added with the inhibitors of different concentrations were calculated, to obtain the inhibitors' effects of the compounds of different concentrations on the kinase activity; and fitting was performed with graphpad prism to obtain the inhibitory IC50 values of the compounds.

For series [2], the system named is DNBS induced rat Crohn's disease model. Kind of series: Therapeutic activity in DNBS induced rat Crohn's disease model. The format is in vivo. Details: rat colon ulcer area: unit not given beside the values. The following applies: for colon weight-length ratio / rat colon ulcer area: 7 days, mean±SD; for colon weight-length ratio: colon weight (g)/length (cm) ratio×100, model group G2 14.6±5.1; for rat colon ulcer area: model group G2 1.54±2.00. As to the method: Male wistar rats of 4-5 weeks old were adaptively fed for 5 days, and two days before the experiment, randomly divided into 6 groups:
Blank control group: G1 (Normal), 4 normal rats were selected and only given with 30% ethanol, 10 mL/kg.
0.5 mL of 50 mg/mL DNBS (DNBS dissolved in 30% ethanol) was injected into the colon of rats to induce enteritis in rats, for 40 rats in total. Eight of them were selected as model group G2 (Model), and the remaining 32 rats were administrated.
Administration group: the rats with DNBS induced enteritis were administered with ABT494 and the compound of Example 2 respectively and divided into G3-G6 groups, 8 rats/group. G3: ABT494, 10 mg/kg-QD; G4: Example 2, 0.3 mg/kg-BID; G5: Example 2, 1 mg/kg-BID; and G6: Example 2, 3 mg/kg-BID.
The rats were fasted, but fed with water for 48 hours, and a 5% glucose salt solution (10 mL/kg) was used as an energy supplement for experimental animals during the fasting period, once a day. On the day of experimental modeling, the fasting rats were anesthetized with Choutet (25 mg/kg), and then 0.5 mL of 50 mg/mL DNBS was injected from the anus to left colic flexure of the rat (about 8 cm to the anus) to induce rat enteritis. All rats were kept in a […] for 15 min until they were awaken, to prevent the backflow of DNBS. From the day of the experimental modeling, medication was given for 7 days.
After the DNBS modeling, the weights of the animals were measured and recorded every day, the daily activities of the animals were observed, and the abnormalities were recorded. During the experiment, the stool state of the rats was scored every day. On day 7, the rats were anesthetized with isoflurane (3-5%), blood was taken from the orbit, and the serum was separated and stored at −80° C. All animals were euthanized by cervical vertebra dis location after suffocation from excessive CO2 inhalation. The abdomen was cut, the colorectum was take out and longitudinally dissected, and the stool trait in the colorectum was scored. The colorectum was thoroughly rinsed with ice-cold PBS and then the ulcer surface was observed. The length and weight and ulcer area of the colon were recorded, the weight-length ratio (colon weight (g)/length (cm) ratio×100) was calculated, and the overall picture was taken. All intestinal tissue was longitudinally divided into two parts, where one part was fixed with 4% neutral […] and embedded with paraffin, and the rest colon sample was cryopreserved at −80° C.
Excel and Graphapad software were used for statistical analysis, and the results were expressed as mean±SD.

Setting [3] is: human liver microsomes, conclusion from Table 2.

JAK2, sequence (O60674 whole entry): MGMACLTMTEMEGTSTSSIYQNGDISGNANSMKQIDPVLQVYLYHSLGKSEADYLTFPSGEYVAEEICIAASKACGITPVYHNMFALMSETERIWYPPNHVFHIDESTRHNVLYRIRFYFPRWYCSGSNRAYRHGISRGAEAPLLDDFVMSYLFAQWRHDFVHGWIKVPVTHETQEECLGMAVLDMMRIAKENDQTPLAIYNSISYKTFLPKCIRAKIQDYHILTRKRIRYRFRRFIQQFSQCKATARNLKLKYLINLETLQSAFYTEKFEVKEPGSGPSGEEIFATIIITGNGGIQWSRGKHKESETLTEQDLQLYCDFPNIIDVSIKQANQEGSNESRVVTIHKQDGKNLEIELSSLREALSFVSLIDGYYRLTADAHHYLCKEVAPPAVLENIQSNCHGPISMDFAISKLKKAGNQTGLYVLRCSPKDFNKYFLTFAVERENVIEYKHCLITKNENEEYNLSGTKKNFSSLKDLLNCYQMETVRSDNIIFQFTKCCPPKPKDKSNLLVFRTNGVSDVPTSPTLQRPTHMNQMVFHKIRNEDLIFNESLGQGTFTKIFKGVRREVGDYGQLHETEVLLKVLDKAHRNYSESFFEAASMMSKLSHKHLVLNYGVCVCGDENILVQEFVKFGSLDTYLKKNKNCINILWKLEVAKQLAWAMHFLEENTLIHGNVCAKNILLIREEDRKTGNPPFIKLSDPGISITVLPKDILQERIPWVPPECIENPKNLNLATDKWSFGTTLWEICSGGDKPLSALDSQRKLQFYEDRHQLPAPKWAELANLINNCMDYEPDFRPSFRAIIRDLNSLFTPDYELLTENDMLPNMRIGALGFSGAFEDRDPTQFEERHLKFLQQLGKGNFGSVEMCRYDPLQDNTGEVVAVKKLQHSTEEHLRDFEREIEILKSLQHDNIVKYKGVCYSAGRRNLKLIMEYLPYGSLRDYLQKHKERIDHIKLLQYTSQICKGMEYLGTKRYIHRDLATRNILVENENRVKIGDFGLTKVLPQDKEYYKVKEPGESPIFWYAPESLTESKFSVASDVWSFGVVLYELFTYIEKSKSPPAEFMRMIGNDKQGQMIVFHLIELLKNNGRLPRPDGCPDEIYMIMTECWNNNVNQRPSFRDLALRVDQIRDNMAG

Usually half-life stands for the time in which the quantity being followed falls by half. Usually IC50 stands for the concentration that inhibits the measured activity by half. Consider `NC(=O)c1cnc2[nH]ccc2c1NN1CCC[C@H](C(=O)NCC(F)F)C1` [Example 2, (S)-4-(3-(2,2-difluoroethylcarbamoyl)piperidine-1-amino)-1H-7-azaindole-5-carboxamide], for which the “Remaining % (60 min)” value in series [1] (human liver microsomes 0.5 mg/mL protein, compound 1 μmol/L, 37° C., 60 min) is 91.9%. The “metabolic half-life in liver microsomes compared with Tofacitinib (in words)” value in series [1] (setting [3]) is “significantly superior to the positive drug Tofacitinib”. Further, the “metabolic stability in liver microsomes (in words)” value in series [1] (setting [3]) is “excellent metabolic activity in liver”. The half-life at 1 μmol/L in series [1] (pH 7.4, human liver microsomes 0.5 mg/mL protein, compound 1 μmol/L, 37° C.) was 5.5 h. Further, the microsomal CLint at 1 μmol/L in series [1] (pH 7.4, human liver microsomes 0.5 mg/mL protein, compound 1 μmol/L, 37° C., read-out: Clint (μL/min/mg protein)) amounted to 4.2 µL/min/mg. This molecule yielded an IC50 on JAK2 of 3.69 nM. Moreover, the colon weight-length ratio was found to be 10.5±3.9 in series [2] (G4, 0.3 mg/kg-BID); 10.0±1.9 in series [2] (G5, 1 mg/kg-BID); 10.5±2.0 in series [2] (G6, 3 mg/kg-BID). Moreover, the “rat colon ulcer area” value in series [2] (G4, 0.3 mg/kg-BID) was found to be 0.83±1.00; in series [2] (G5, 1 mg/kg-BID), 0.65±1.05; in series [2] (G6, 3 mg/kg-BID) it was 0.76±1.21. In addition, in series [2] (relatively low dose), the “effect on DNBS induced enteritis of the rats (in words)” value was “significant effect in inhibiting the DNBS induced enteritis of the rats”.
